Measured values taken from ChEMBL document CHEMBL6092200, “Structure-guided inhibitor design targeting CntL provides the first chemical validation of the staphylopine metallophore system in bacterial metal acquisition” (Eur J Med Chem, 2024).
Active and inactive are the calls of the source. The calls are words filed in the database; no cut-off is given here.

Columns and labels:
[1] = target: T1, D-histidine 2-aminobutanoyltransferase (Staphylococcus aureus (strain Mu50 / ATCC 700699)) (UniProt A0A0H3JXA8); experiment: Induction of thermal stabilization of Staphylococcus aureus ATCC 700699 CntL assessed as change in melting temperature by fluorescence-based thermal shift assay
T1 sequence (whole entry): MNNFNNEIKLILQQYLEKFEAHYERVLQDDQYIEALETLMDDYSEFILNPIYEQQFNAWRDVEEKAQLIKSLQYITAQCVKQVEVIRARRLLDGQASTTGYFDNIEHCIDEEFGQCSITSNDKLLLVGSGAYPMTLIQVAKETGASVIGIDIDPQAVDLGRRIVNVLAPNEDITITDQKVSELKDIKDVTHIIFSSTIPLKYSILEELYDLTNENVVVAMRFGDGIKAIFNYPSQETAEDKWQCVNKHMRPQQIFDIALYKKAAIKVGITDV

[2] = target: T2, L-histidine 2-aminobutanoyltransferase (Pseudomonas aeruginosa) (UniProt Q9HUX4); experiment: Induction of thermal stabilization of N-terminal his6-tagged Pseudomonas aeruginosa CntL assessed as increase in melting temperature at 500 uM by fluorescence-based thermal shift assay
T2 sequence (whole entry): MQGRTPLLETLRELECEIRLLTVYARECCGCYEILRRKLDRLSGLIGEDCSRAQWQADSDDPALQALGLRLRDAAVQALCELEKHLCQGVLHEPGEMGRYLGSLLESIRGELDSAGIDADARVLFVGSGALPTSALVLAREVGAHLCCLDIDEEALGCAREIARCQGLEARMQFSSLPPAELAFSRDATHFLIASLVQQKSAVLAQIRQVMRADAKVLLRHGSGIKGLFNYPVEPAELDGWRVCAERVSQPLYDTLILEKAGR

[3] = target: T3, L-histidine 2-aminobutanoyltransferase (Pseudomonas aeruginosa, UniProt Q9HUX4); experiment: Binding affinity to N-terminal his6-tagged Pseudomonas aeruginosa CntL assessed as dissociation constant by ITC analysis
T3 sequence (Q9HUX4 whole entry): T2 sequence (whole entry)

[4] = target: T1, D-histidine 2-aminobutanoyltransferase (Staphylococcus aureus (strain Mu50 / ATCC 700699)); experiment: Induction of thermal stabilization of Staphylococcus aureus ATCC 700699 CntL assessed as change in melting temperature at 100 uM by fluorescence-based thermal shift assay
[5] = target: T1, D-histidine 2-aminobutanoyltransferase (Staphylococcus aureus (strain Mu50 / ATCC 700699)); experiment: Inhibition of N-terminal his6-tagged Staphylococcus aureus ATCC 700699 CntL at 5 uM using SAM as substrate preincubated with compound for 10 mins followed by substrate addition and measured after 25 mins in presence of NADPH by microplate reader analysis relative to control; conditions: time 35.0 min
[6] = target: T4, D-histidine 2-aminobutanoyltransferase (Staphylococcus aureus (strain Mu50 / ATCC 700699), UniProt A0A0H3JXA8); experiment: Inhibition of N-terminal his6-tagged Staphylococcus aureus ATCC 700699 CntL using SAM as substrate preincubated with compound for 10 mins followed by substrate addition and measured after 25 mins in presence of NADPH by microplate reader analysis
T4 sequence (A0A0H3JXA8 whole entry): T1 sequence (whole entry)

[7] = target: T2, L-histidine 2-aminobutanoyltransferase (Pseudomonas aeruginosa); experiment: Binding affinity to N-terminal his6-tagged Pseudomonas aeruginosa CntL assessed as change in entropy by ITC analysis
[8] = target: T1, D-histidine 2-aminobutanoyltransferase (Staphylococcus aureus (strain Mu50 / ATCC 700699)); experiment: Binding affinity to N-terminal his6-tagged Staphylococcus aureus ATCC 700699 CntL assessed as change in entropy by ITC analysis
[9] = target: T4, D-histidine 2-aminobutanoyltransferase; experiment: Binding affinity to N-terminal his6-tagged Staphylococcus aureus ATCC 700699 CntL assessed as dissociation constant by ITC analysis
[10] = target: T2, L-histidine 2-aminobutanoyltransferase (Pseudomonas aeruginosa); experiment: Binding affinity to N-terminal his6-tagged Pseudomonas aeruginosa CntL assessed as change in gibbs free energy by ITC analysis
[11] = target: T1, D-histidine 2-aminobutanoyltransferase (Staphylococcus aureus (strain Mu50 / ATCC 700699)); experiment: Binding affinity to N-terminal his6-tagged Staphylococcus aureus ATCC 700699 CntL assessed as gibbs free energy change by ITC analysis
[12] = target: T2, L-histidine 2-aminobutanoyltransferase (Pseudomonas aeruginosa); experiment: Binding affinity to N-terminal his6-tagged Pseudomonas aeruginosa CntL assessed as change in enthalpy by ITC analysis
[13] = target: T1, D-histidine 2-aminobutanoyltransferase (Staphylococcus aureus (strain Mu50 / ATCC 700699)); experiment: Binding affinity to N-terminal his6-tagged Staphylococcus aureus ATCC 700699 CntL assessed as change in enthalpy by ITC analysis
[14] = target: T1, D-histidine 2-aminobutanoyltransferase (Staphylococcus aureus (strain Mu50 / ATCC 700699)); experiment: Induction of thermal stabilization of Staphylococcus aureus ATCC 700699 CntL assessed as melting temperature in presence of L-His by fluorescence-based thermal shift assay
[15] = target: T1, D-histidine 2-aminobutanoyltransferase (Staphylococcus aureus (strain Mu50 / ATCC 700699)); experiment: Induction of thermal stabilization of Staphylococcus aureus ATCC 700699 CntL assessed as melting temperature in presence of D-His by fluorescence-based thermal shift assay
[16] = target: T1, D-histidine 2-aminobutanoyltransferase (Staphylococcus aureus (strain Mu50 / ATCC 700699)); experiment: Induction of thermal stabilization of Staphylococcus aureus ATCC 700699 CntL assessed as change in melting temperature in presence of histidine by fluorescence-based thermal shift assay
[17] = target: T1, D-histidine 2-aminobutanoyltransferase (Staphylococcus aureus (strain Mu50 / ATCC 700699)); experiment: Induction of thermal stabilization of Staphylococcus aureus ATCC 700699 CntL assessed as melting temperature by fluorescence-based thermal shift assay
[18] = target: T1, D-histidine 2-aminobutanoyltransferase (Staphylococcus aureus (strain Mu50 / ATCC 700699)); experiment: Induction of thermal stabilization of Staphylococcus aureus ATCC 700699 CntL assessed as melting temperature in presence of xNA by fluorescence-based thermal shift assay
[19] = target: T1, D-histidine 2-aminobutanoyltransferase (Staphylococcus aureus (strain Mu50 / ATCC 700699)); experiment: Inhibition of N-terminal his6-tagged Staphylococcus aureus ATCC 700699 CntL assessed as reduction in intracellular cobalt ion level at 100 uM by ICP-MS analysis; type: cell-based
Staphylococcus aureus [20] = experiment: Antibacterial activity against Staphylococcus aureus […] assessed as effect on bacterial growth at 100 uM incubated for 12 hrs in presence of LB medium; type: functional, organism-based
Staphylococcus aureus [21] = experiment: Antibacterial activity against Staphylococcus aureus […] assessed as effect on bacterial growth at 100 uM incubated for 12 hrs in presence of dCDM medium; type: functional, organism-based
[22] = target: T1, D-histidine 2-aminobutanoyltransferase (Staphylococcus aureus (strain Mu50 / ATCC 700699)); experiment: Inhibition of N-terminal his6-tagged Staphylococcus aureus ATCC 700699 CntL assessed as reduction in intracellular iron level at 100 uM by ICP-MS analysis; type: cell-based
Staphylococcus aureus [23] = experiment: Antibacterial activity against Staphylococcus aureus […] assessed as effect on bacterial growth at 100 uM incubated for 12 hrs in presence of chemically defined medium; type: functional, organism-based
[24] = target: T1, D-histidine 2-aminobutanoyltransferase (Staphylococcus aureus (strain Mu50 / ATCC 700699)); experiment: Inhibition of N-terminal his6-tagged Staphylococcus aureus ATCC 700699 CntL assessed as reduction in intracellular nickel ion level at 100 uM by ICP-MS analysis; type: cell-based

SMILES	ΔTm [1]	Activity [2]	Kd [3]	ΔTm [4]	inhibition [5]	IC50 [6]	-TdeltaS [7]	-TdeltaS [8]	Kd [9]	deltaG [10]	deltaG [11]	deltaH [12]	deltaH [13]	other results
Nc1nc(Cl)nc2c1ncn2[C@@H]1O[C@H](CSCCCNC(Cc2c[nH]cn2)C(=O)O)[C@@H](O)[C@H]1O (single isomer, unassigned)	8.4 °C	Active												
Nc1ncnc2c1ncn2[C@@H]1O[C@H](CSCCN[C@@H](Cc2c[nH]cn2)C(=O)O)[C@@H](O)[C@H]1O	1 °C	Active	0.22 µM	8.4 °C	92%	0.06 µM	-20.3 kJ/mol	32.3 kJ/mol	0.041 µM	-38.1 kJ/mol	-42.3 kJ/mol	-17.8 kJ/mol	-74.5 kJ/mol	
Nc1ncnc2c1ncn2[C@@H]1O[C@H](CSCCCNC(=O)[C@H](N)Cc2c[nH]cn2)[C@@H](O)[C@H]1O				0.7 °C	< 20%									
Nc1ncnc2c1ncn2[C@@H]1O[C@H](CSCCCN[C@@H](Cc2c[nH]cn2)C(=O)O)[C@@H](O)[C@H]1O	0.7 °C	Active	0.6 µM	7.7 °C	96%	0.12 µM	0.623 kJ/mol	37.9 kJ/mol	0.18 µM	-35.5 kJ/mol	-38.5 kJ/mol	-36.2 kJ/mol	-76.6 kJ/mol	
Nc1ncnc2c1ncn2[C@@H]1O[C@H](CSCCC(=O)N[C@@H](Cc2c[nH]cn2)C(=O)O)[C@@H](O)[C@H]1O				1.7 °C	< 20%									

The next lines start with results.

ΔTm [1]	Activity [2]	Kd [3]	ΔTm [4]	inhibition [5]	IC50 [6]	-TdeltaS [7]	-TdeltaS [8]	Kd [9]	deltaG [10]	deltaG [11]	deltaH [12]	deltaH [13]	SMILES	other results
4.7 °C													COc1nc(N)c2ncn([C@@H]3O[C@H](CSCCCN[C@@H](Cc4c[nH]cn4)C(=O)O)[C@@H](O)[C@H]3O)c2n1	
		15.5 µM				0.326 kJ/mol	68.6 kJ/mol	10.9 µM	-27.4 kJ/mol	-28.6 kJ/mol	-27.7 kJ/mol	-97.5 kJ/mol	CSC[C@H]1O[C@@H](n2cnc3c(N)ncnc32)[C@H](O)[C@@H]1O [METHYLTHIOADENOSINE]	Tm [14]: 59 °C; Tm [15]: 59 °C; ΔTm [16]: 3.4 °C; Tm [17]: 56.3 °C; Tm [18]: 59.3 °C
9.4 °C	Active				~0.06 µM		1.87 kJ/mol	0.021 µM		-43.9 kJ/mol		-45.6 kJ/mol	Nc1nc(Cl)nc2c1ncn2[C@@H]1O[C@H](CSCCN[C@@H](Cc2c[nH]cn2)C(=O)O)[C@@H](O)[C@H]1O	inhibition [19]: Active; Activity (Staphylococcus aureus [20]): inactive; Activity (Staphylococcus aureus [21]): inactive; inhibition [22]: Active; Activity (Staphylococcus aureus [23]): inactive; inhibition [24]: Active
